Source: patent publication US4136194A, “2-Phenyl-2-carboxyethyl 1-(p-chlorobenzoyl)-5-methoxy-2-methyl-3-indolylacetate and process for preparation thereof” (SPOFA, United Pharmaceutical Works, priority 1976, dated 1979)
Where two headings read alike, the source gives them in different places.

How the values were obtained:
[1] = Acute oral toxicity in mice; conditions: mouse, in vivo, single dose, female mice, 10 days, limits after the slash
Description: (§1) The 2-phenyl-2-carboxyethyl 1-(p-chlorobenzoyl)-5-methoxy-2-methyl-3-indolylacetate prepared in accordance with the invention was evaluated by comparison with 1-(p-chlorobenzoyl-5-methoxy-2-methyl-3-indolylacetic acid), the widely-used anti-inflammatory substance indomethacin. The two compounds were compared upon oral administration of their aqueous suspensions, with the addition of gum arabic, into the stomachs of test animals using a flexible metallic probe.
(§2) Acute toxicity was determined by administering both compounds in a single dose to female mice weighing 16-20 grams (groups of ten) and female rats weighing 130-150 grams (groups of ten). The mortality rate was followed for 10 days after administration of the dosage. The median lethal doses, LD50, are set forth in Table I below and were calculated by the method of J. Berkson, J. Am. Stat. Assoc. 50, 529, (1955).

[2] = Acute oral toxicity in rats; conditions: rat, in vivo, single dose, female rats, 10 days, limits after the slash
Description: as §1, §2

kaolin oedema = assay: Kaolin oedema inhibition; format: in vivo; conditions: 1 mg/kg p.o., one hour before kaolin, male rats, vs untreated control
Description: as §1
(§3) Anti-inflammatory activity was evaluated on kaolin oedema, carrageenin oedema and Freund adjuvant disease as standard model inflammatory syndromes in a group of six male rats.
The kaolin oedema of an extremity (J. Hillebrecht, Arzneim.-Forsch. 9, 625 (1969)) was produced in male rats weighing 130-150 grams by subplanatary injection of a 10% aqueous suspension of kaolin (0.1 ml). The indolylacetate of the invention and indomethacin were administered one hour before the injection of the suspension. The oedema size was measured 30 minutes, 3, 4.5 and 6 hours after the injection. The activity is conveniently expressed in percent of rate of inhibition in comparison with the untreated control group, the results being summarized in Table II below.

carrageenin oedema = assay: Carrageenin oedema inhibition; format: in vivo; conditions: 1.5 mg/kg p.o., male rats, vs untreated control
Description: as §1, §3
The carrageenin oedema (Ch. Winter, Proc. Soc. Exp. Biol. Med. 111, 544 (1962)) was produced in male rats weighing 130-150 grams by subplanatary injection of a 0.5% carrageenin solution (0.1 ml). The dosage schedule and assay procedure as well as the results were identical with those described above for the kaolin oedema inhibition test.

mice = assay: Analgesic activity, intraperitoneal irritation test with 3% acetic acid; format: in vivo, female mice; conditions: Mus musculus, read-out: ED50 (analgesic activity)
Description: as §1
Analgesic activity was evaluated by the intraperitoneal irritation test with 3% acetic acid (L. B. Wilkin et al., J. Pharm. 133, 400 (1961)) in female mice weighing 16-20 grams (groups of 12 animals).

gastric mucosa = format: in vivo; conditions: 8 mg/kg oral, starving female rats
Description: as §1
Gastrotoxicity (adversary effect on gastric mucosa, A. Robert, J. E. Nezamis, Proc. Soc. Exp. Biol. Med. 99, 443 (1958)) was monitored by oral administration of the compounds being compared by testing starving female rats of 250-300 grams body weight (group of six animals). The evaluation was made by estimating the frequency of gastric erosions and ulcers. The relative gastrotoxicity of the two compounds is expressed by the respective standard criteria, ulceration index, as indicated in Table IV below.

Row | SMILES | LD50 at 240 h [1] | LD50 at 240 h [2] | Kaolin oedema inhibition (kaolin oedema) | Carrageenin oedema inhibition (carrageenin oedema) | ED50 (mice; oral, female mice, 3% acetic acid i.p.) | ED50 (mice; po) | Ulceration Index (gastric mucosa)
1 | COc1ccc2c(c1)c(CC(=O)OCC(C(=O)O)c1ccccc1)c(C)n2C(=O)c1ccc(Cl)cc1 (centres unmarked) [Compound of Invention, 2-phenyl-2-carboxyethyl 1-(p-chlorobenzoyl)-5-methoxy-2-methyl-3-indolylacetate] | 190 mg/kg | 140 mg/kg | 16% | 15% | 24.5 mg/kg |  | 
2 | COc1ccc2c(c1)c(CC(=O)O)c(C)n2C(=O)c1ccc(Cl)cc1 [Indomethacin, 1-(p-chlorobenzoyl)-5-methoxy-2-methyl-3-indolylacetic acid] | 18 mg/kg | 25 mg/kg | 19% | 14% |  | 14.5 mg/kg | 300
